# Patent US20250360177A1, “FERMENTATION PRODUCT FOR THE TREATMENT OF INFLAMMATORY DISEASES” (ALFASIGMA S.P.A., priority 2022, published 2025)
# How the values were obtained:
# IL-10 = IL-10 ELISA in LPS-stimulated RAW264.7 macrophages; assay type: cell-based; details: LPS 24 hours
# Experimental: Each solution was centrifuged for 20 min at 2500 rpm, the insoluble residues discarded and the supernatant filtered on 0.22-μm PES filters. […] The cells were divided into 5 groups and each group was treated for 2 hours with […] of each of the Solutions obtained from the plant extracts (Sol. Ex1-Ex5). […] At the end of incubation, the supernatants were collected and analyzed by ELISA assay (Invitrogen kit) to detect the amount of IL-10.
# [1] = tested on: TNBS-induced colitis mice; experiment: TNBS-induced colitis in mice, comparison to VSL #3 and E. coli Nissle (Example 12); assay type: in vivo, C57BL/6 mice; details: TNBS 2 mg/mouse ir; 100 mg per kg mouse os, 4 days
# Experimental: C57BL/6 Male mice aged 7-8 weeks (ENVIGO, Italy) were housed under standard laboratory conditions: light/dark cycles (12/12 hr), ambient temperature 20±2° C., 55% relative air humidity and food (Mucedola RF18) and water ad libitum.
# Colitis was induced in the mice as previously described, using TNBS (Yang et al., Scientific Reports, 2016 6:29716).
# After 3 h of colitis induction, each group of mice was orally administered with the corresponding treatment for 4 days. During the 4-day trial, the mice were routinely inspected for their body mass, and diarrhea. All mice were sacrificed by cervical dislocation for sample collection at the end of day 4.
# [2] = tested on: TNBS-induced ulcerative colitis mouse model; experiment: TNBS-induced ulcerative colitis in mice, DAI score and colon length (Example 6); assay type: in vivo, C57BL/6 mice; details: TNBS 2 mg/mouse i.r.; 100 mg/kg per gavage
# Experimental: The efficacy of fermentation products of L. brevis DSM 33682 obtained in the presence of Phaseolus radiatus sprout extract (Lio-Prob1) or absence of the extract (Lio-Prob2) was determined by measurement of DAI score and colonic length. Male C57BL/6 mice (Envigo) aged 6-8 weeks (8 mice/group), ulcerative colitis was induced with 2,4,6-trinitrobenzenesulfonic acid (TNBS) (Yang et al., Scientific Reports, 2016 6:29716). […] Mice were sacrificed by cervical dislocation 6 h after the last administration. The disease activity index, expressed by DAI score, of C57BL/6 mice was measured according to the method reported by Yang et al., Scientific Reports, 2016 6:29716.
# [3] = tested on: TNF-α, IL-1β and IL-10 gene expression; experiment: Relative quantitative real-time PCR of colonic cells of TNBS-induced colitis mice; assay type: in vivo, C57BL/6 mice; details: Lio-Prob1 12 mg/kg or mesalazine 100 mg/kg orally 4 days
# Experimental: RNA of colonic cells of C57BL/6 male mice treated according to Example 8 was isolated with Trizol (Life-technologies). […] BIO 65053). Real-time PCR was performed using SYBR green Master Mix (#1725150, Biorad). GAPDH was used as internal control. The relative transcription mRNA level was calculated.
# IL-1beta mRNA = IL-1beta mRNA transcription in LPS-stimulated RAW264.7 macrophages (Real-Time PCR); assay type: cell-based; details: 0.1 mM, LPS 24 hours
# Experimental: The anti-inflammatory activity of the fermentation product in lyophilic form of L. brevis DSM 33682 obtained in the presence of Phaseolus radiatus sprout extract (Lio-Prob1) according to Example 5, and the product obtained without Phaseolus radiatus sprout extract (Lio-Prob2) according to Example 6, were analyzed by means of determination of the amount of IL-1beta mRNA.
# 3×10^5 Cells/well of RAW264.7 macrophages (ATCC) were seeded on a 24-well plate.
# Ten μl of lipopolysaccharide (LPS) from Sigma-Aldrich n.2630 (10 μg/mL) was added to each well and incubated at 37° C. in a 5% CO2 incubator for 24 hours.
# At the end of incubation, macrophage RNA was extracted and analysed by Real-Time PCR to detect the gene transcription level of the proinflammatory cytokine IL-1beta, calculated as the mean value for the treated groups compared with macrophages treated with LPS alone. In particular, total RNA was isolated from each sample using the mini RNeasy kit (QiaGen GmbH, Hilden, Germany), and 1ug of total RNA was reverse transcribed by IScript™ cDNA Synthesis Kit (BioRad, Hercules, CA, USA). Real-time PCR was carried out by a BioRad CFX96 Touch™ Real-Time PCR Detection System using SsoAdvanced Universal SYBR Green super Mix (BioRad). The expression level of each mRNA was assessed using the ΔΔCT method, and Gapdh was used as housekeeping gene for normalization. The following primers were used.
# [4] = tested on: TNBS-induced ulcerative colitis mouse model; experiment: TNBS-induced ulcerative colitis in mice, plant extract solutions; assay type: in vivo, C57BL/6 mice; details: TNBS 2 mg/mouse i.r.; 100 mg/kg gavage; day 3
# Experimental: Ulcerative colitis was induced in a mouse model by administration of 2,4,6-trinitrobenzenesulfonic acid (TNBS) (Yang et al., Scientific Reports, 2016 6: 29716). Male C57BL/6 mice aged 6-8 weeks were divided into groups of 8 mice each. Solutions obtained from the plant extracts (Sol. […] Ex-1 (Scutellaria baicalensis Georgi)/600μL/mouse per gavage • Group E: TNBS 2 mg/mouse in 100 μL i.r.+Sol. Ex-2 (Phaseolus radiatus)/[…]/mouse per gavage • Group F: TNBS 2 mg/mouse in 100 μL i.r.+Sol. Ex-3 (Curcuma longa)/600 μL/mouse per gavage • Group G: TNBS 2 mg/mouse in 100 μL i.r.+Sol. Ex-5 (Broccoli sprouts)/600 μL/mouse per gavage. Mice were sacrificed 6 h after the last administration by cervical dislocation.
smiles,measurement,setting,value
CC(=O)O [Acetate],% IL-10 (vs LPS) ± SD,IL-10; 5 mM,199 ± 14%
CCCC(=O)O [Butyrate],% IL-10 (vs LPS) ± SD,IL-10; 0.62 mM,268 ± 71%
Nc1ccc(O)c(C(=O)O)c1 [Mesalazine],BWL body weight loss % max,[1],4%
same,% IL-10 (vs LPS) ± SD,IL-10; 0.1 mM,216 ± 55%
same,% IL-10 (vs LPS) ± SD,IL-10; 0.2 mM,269 ± 18%
same,DAI score ± SE,[2],1.1 ± 0.5
same,colon length (mm) ± SE,[2],66.6 ± 0.5 mm
same,"expression levels of pro-inflammatory genes, including TNF-α and IL-1β (in words)",[3]; colon of TNBS-induced acute colitis mice,reduced the expression levels of pro-inflammatory genes
same,expression of IL-10 (in words),[3]; colon of TNBS-induced colitis mice,increased
same,mRNA IL-1beta transcription inhibition compared to LPS treatment,IL-1beta mRNA,59%
same,colon length (mm) ± SE,[4],68 ± 1.9 mm
CCC(=O)O [Propionate],% IL-10 (vs LPS) ± SD,IL-10; 10 mM,135 ± 2%
